In article PMC7486443, “Generation of Phenothiazine with Potent Anti-TLK1 Activity for Prostate Cancer Therapy” (iScience, 2020):

Columns and labels:
Assay in all cases: biochemical
Parameters in all cases: DiscoverX KINOMEscan scanMAX competition binding panel, single concentration, percent of control; remaining binding: dose or concentration left out as unconfirmed
Settings in all cases: KINOMEscan binding, percent of control; read-out: Table S4_SCANMAX REPORT - related to Fig. 1 / Percent Control
[1] = target: T1, MST2 (Homo sapiens, UniProt Q13188)
T1 construct: gene STK3

[2] = target: PIK3CA(H1047L) (Homo sapiens, UniProt P42336, H1047L)
[3] = target: T2, MLK2 (Homo sapiens, UniProt Q02779)
T2 construct: gene MAP3K10

[4] = target: T3, PKAC-beta (Homo sapiens, UniProt P22694)
T3 construct: gene PRKACB

[5] = target: T4, TRKA (Homo sapiens, UniProt P04629)
T4 construct: gene NTRK1

[6] = target: VRK2 (Homo sapiens, UniProt Q86Y07)
[7] = target: PKNB(M.tuberculosis) (Mycobacterium tuberculosis, UniProt P9WI81)
[8] = target: T5, MEK4 (Homo sapiens, UniProt P45985)
T5 construct: gene MAP2K4

[9] = target: MYLK2 (Homo sapiens, UniProt Q9H1R3)
[10] = target: ULK3 (Homo sapiens, UniProt Q6PHR2)
[11] = target: T6, IKK-beta (Homo sapiens, UniProt O14920)
T6 construct: gene IKBKB

[12] = target: PRKD1 (Homo sapiens, UniProt Q15139)
[13] = target: MET(Y1235D) (Homo sapiens, UniProt P08581, Y1235D)
[14] = target: TLK1 (Homo sapiens, UniProt Q9UKI8)
[15] = target: AURKC (Homo sapiens, UniProt Q9UQB9)
[16] = target: MAP4K2 (Homo sapiens, UniProt Q12851)
[17] = target: MARK4 (Homo sapiens, UniProt Q96L34)
[18] = target: TIE1 (Homo sapiens, UniProt P35590)
Chain of TIE1 (P35590 whole entry): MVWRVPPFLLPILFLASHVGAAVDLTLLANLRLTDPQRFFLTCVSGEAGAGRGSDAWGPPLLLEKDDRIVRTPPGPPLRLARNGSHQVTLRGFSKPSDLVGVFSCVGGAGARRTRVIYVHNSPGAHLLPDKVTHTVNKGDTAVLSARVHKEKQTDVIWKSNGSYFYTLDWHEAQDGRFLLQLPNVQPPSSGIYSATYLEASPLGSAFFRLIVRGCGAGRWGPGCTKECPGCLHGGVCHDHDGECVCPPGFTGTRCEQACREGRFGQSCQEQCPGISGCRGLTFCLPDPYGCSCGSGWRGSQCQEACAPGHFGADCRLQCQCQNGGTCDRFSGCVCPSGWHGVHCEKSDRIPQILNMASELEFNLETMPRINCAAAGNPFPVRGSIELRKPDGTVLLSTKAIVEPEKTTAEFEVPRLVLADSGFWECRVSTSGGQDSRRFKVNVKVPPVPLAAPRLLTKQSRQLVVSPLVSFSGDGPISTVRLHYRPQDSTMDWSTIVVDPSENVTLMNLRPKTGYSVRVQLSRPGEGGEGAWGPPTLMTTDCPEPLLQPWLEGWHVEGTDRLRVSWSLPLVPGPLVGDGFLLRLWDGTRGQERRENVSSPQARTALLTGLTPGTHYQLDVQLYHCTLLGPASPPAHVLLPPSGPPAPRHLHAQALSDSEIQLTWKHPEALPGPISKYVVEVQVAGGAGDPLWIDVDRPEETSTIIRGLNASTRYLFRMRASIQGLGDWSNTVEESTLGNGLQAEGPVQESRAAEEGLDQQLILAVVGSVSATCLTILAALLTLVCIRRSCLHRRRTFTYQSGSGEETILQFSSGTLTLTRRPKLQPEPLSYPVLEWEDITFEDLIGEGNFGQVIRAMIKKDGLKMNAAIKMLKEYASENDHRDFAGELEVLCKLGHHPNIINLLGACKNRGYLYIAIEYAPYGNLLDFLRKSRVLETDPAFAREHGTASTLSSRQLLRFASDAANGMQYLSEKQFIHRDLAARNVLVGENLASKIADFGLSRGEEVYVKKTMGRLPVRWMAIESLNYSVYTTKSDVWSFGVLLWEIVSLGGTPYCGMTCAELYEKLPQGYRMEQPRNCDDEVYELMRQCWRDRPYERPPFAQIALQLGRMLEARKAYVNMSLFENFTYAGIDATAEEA

Chain of TLK1 (Q9UKI8 whole entry): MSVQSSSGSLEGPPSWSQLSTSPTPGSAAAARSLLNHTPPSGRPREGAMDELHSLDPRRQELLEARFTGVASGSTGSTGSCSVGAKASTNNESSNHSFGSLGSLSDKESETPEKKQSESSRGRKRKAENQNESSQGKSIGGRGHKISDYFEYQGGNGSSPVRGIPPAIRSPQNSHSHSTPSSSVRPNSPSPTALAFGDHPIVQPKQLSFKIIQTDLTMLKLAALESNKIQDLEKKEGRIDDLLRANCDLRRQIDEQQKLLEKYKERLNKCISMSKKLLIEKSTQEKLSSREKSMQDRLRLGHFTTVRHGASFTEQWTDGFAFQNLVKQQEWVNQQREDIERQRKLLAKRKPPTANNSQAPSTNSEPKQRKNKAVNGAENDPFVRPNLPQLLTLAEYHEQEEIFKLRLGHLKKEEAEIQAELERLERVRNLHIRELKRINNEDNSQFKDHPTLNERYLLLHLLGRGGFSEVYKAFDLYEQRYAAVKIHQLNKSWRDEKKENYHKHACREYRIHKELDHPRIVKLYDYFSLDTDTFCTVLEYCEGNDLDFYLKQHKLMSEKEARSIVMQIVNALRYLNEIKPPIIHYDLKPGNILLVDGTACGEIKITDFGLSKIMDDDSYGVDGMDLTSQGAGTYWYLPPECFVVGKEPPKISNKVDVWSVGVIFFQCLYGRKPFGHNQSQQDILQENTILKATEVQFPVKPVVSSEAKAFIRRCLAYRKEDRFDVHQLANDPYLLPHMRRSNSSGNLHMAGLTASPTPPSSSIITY
Chain of ULK3 (Q6PHR2 whole entry): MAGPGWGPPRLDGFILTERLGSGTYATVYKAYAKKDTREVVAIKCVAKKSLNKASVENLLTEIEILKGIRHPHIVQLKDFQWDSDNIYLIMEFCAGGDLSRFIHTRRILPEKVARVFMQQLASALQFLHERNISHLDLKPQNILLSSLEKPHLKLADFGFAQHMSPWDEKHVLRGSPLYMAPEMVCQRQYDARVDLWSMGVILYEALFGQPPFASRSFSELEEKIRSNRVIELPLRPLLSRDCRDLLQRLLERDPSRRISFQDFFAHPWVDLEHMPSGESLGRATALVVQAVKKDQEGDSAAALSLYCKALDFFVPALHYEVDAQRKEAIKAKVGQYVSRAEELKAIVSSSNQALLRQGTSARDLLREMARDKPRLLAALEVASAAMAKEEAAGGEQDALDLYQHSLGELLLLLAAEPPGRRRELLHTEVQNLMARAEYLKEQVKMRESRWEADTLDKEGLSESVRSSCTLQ
Chain of VRK2 (Q86Y07 whole entry): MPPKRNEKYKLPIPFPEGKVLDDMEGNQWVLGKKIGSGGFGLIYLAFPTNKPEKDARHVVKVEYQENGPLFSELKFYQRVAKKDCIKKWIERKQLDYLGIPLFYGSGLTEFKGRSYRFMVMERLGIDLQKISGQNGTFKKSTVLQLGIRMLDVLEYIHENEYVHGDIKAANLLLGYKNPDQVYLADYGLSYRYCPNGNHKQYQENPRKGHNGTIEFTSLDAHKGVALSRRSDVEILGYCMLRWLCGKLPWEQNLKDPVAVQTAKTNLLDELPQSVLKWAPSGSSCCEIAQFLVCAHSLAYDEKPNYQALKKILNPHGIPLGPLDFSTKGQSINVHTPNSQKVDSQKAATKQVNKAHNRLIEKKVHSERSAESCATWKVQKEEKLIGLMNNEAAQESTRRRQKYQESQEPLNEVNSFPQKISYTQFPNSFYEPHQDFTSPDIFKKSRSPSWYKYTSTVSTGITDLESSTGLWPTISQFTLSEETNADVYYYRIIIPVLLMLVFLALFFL
T1 sequence (Q13188 whole entry): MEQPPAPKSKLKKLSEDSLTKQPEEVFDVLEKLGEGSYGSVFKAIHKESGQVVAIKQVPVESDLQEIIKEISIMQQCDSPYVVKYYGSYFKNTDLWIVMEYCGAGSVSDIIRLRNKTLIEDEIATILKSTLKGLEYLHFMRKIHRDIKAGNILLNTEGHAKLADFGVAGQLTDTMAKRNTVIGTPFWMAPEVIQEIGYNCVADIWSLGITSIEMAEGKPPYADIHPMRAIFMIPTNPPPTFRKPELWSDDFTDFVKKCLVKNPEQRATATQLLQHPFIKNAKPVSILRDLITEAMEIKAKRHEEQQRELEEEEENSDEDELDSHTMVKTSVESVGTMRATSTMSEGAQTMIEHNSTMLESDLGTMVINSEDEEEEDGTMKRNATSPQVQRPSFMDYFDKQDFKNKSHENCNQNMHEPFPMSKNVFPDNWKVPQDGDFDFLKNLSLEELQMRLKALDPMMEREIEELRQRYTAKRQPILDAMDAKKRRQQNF
Chain of MARK4 (Q96L34 whole entry): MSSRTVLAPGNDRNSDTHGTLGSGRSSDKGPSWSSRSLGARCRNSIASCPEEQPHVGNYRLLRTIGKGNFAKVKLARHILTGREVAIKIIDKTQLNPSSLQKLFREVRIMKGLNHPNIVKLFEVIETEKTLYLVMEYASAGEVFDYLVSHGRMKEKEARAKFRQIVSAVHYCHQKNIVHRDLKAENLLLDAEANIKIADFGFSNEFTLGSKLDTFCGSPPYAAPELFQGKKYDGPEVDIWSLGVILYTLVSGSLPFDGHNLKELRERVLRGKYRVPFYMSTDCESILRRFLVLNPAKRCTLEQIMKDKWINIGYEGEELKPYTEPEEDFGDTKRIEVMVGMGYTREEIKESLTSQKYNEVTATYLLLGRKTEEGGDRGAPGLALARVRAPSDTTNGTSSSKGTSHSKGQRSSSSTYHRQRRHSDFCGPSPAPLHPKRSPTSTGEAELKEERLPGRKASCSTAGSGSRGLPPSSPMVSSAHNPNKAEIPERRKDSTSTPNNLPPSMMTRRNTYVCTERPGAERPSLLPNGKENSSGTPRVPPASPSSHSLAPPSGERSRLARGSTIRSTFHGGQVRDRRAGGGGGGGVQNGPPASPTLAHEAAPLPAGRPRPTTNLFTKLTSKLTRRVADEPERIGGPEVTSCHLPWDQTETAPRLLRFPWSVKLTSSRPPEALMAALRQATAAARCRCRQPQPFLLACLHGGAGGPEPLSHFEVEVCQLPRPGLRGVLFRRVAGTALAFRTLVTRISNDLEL
Chain of MYLK2 (Q9H1R3 whole entry): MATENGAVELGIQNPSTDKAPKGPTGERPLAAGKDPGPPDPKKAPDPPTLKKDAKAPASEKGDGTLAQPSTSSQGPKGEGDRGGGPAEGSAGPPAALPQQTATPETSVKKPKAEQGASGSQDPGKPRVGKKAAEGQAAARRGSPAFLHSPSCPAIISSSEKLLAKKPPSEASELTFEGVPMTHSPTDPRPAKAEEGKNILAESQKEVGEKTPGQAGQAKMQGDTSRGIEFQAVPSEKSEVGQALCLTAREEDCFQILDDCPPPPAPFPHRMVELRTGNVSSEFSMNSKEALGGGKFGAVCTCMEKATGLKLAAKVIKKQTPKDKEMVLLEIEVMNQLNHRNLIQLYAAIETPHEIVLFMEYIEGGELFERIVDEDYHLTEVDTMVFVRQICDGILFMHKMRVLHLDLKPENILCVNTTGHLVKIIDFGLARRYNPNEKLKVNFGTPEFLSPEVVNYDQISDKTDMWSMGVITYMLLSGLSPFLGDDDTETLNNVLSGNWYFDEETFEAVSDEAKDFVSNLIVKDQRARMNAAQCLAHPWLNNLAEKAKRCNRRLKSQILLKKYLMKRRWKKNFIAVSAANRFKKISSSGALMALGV
Chain of AURKC (Q9UQB9 whole entry): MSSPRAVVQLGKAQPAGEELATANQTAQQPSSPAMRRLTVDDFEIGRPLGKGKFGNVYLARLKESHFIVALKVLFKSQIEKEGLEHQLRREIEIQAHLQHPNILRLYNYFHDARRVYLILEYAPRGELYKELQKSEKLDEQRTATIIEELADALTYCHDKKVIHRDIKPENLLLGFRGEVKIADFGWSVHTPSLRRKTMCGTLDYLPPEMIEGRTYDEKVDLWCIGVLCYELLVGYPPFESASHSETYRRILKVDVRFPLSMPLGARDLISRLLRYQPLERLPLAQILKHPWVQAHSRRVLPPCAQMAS

## c1ccc2c(c1)Sc1ccccc1N2CCN1CCOCC1 [J54]
[1]
  remaining binding: 100%
[2]
  remaining binding: 100%
[3]
  remaining binding: 97%
[4]
  remaining binding: 86%
[5]
  remaining binding: 82%
[6]
  remaining binding: 70%
[7]
  remaining binding: 87%
[8]
  remaining binding: 100%
[9]
  remaining binding: 74%
[10]
  remaining binding: 79%
[11]
  remaining binding: 100%
[12]
  remaining binding: 97%
[13]
  remaining binding: 80%
[14]
  remaining binding: 16%
[15]
  remaining binding: 100%
[16]
  remaining binding: 100%
[17]
  remaining binding: 100%
[18]
  remaining binding: 98%
